Literature values, collected in US7785578B2, “Non-invasive ocular drug delivery” (Aciont, Inc., priority 2002, dated 2010).

Details: following a 5 mg peribulbar injection; comparable to a high oral dose (approximately 7.5 mg)

For `C[C@@H]1C[C@H]2[C@@H]3CCC4=CC(=O)C=C[C@]4(C)[C@@]3(F)[C@@H](O)C[C@]2(C)[C@@]1(O)C(=O)CO` [dexamethasone], the “systemic levels in plasma” value is listed as 60 ng/mL.
